Data as given in article PMC12381739, “Druglike Molecular Degraders of the Oncogenic RNA-Binding Protein HuR” (JACS Au, 2025).

Tests used:
MCF-7 spheroids = assay: 3D spheroid growth model, MCF-7; assay type: cell-based, human; settings: 10 nM
Protocol: (§1) MDA-MB-231 and MCF-7 breast cancer cells were cultured in standard tissue culture plates using RPMI or DMEM media supplemented with 10% fetal bovine serum (FBS) and 1% penicillin–streptomycin until they reached approximately 80% confluency. Cells were washed with PBS and dissociated using 0.25% Trypsin-EDTA, followed by neutralization with complete medium. Viability was assessed via trypan blue exclusion, ensuring >90% viable cells. For spheroid formation, cells were seeded into ultralow attachment 96-well plates at a density of 5000 cells/well in 200 μL of complete medium. Plates were centrifuged at 1000 rpm for 5 min to promote aggregation and incubated at 37 °C in a humidified 5% CO2 atmosphere. Spheroid formation was monitored daily using an inverted microscope. Media exchanges or treatment additions were performed by carefully aspirating 100 μL of medium from each well and replacing it with an equal volume of fresh or treatment-containing medium. Differences in spheroid characteristics between the two cell lines were noted: MCF-7 cells, being epithelial and E-cadherin positive, formed compact, uniform spheroids at lower seeding densities (1000–5000 cells/well) over 3–5 days, whereas MDA-MB-231 cells, which lack E-cadherin, required higher densities (5000–10,000 cells/well) and formed looser aggregates typically within 2–4 days. All experiments were performed in duplicates. Surface area was calculated using Image View’s multipoint connection function.

MCF-7 cells [1] = assay: Crystal violet viability assay in MCF-7 cells; assay type: cell-based, human; settings: MCF-7, 10 nM and 10 μM, 48 h
From the text: (§2) To elucidate the decrease in cell viability observed, we evaluated the potential increase in apoptosis using the […] Caspase-Glo 3/7 assay system. Upon cell lysis, active caspases cleave a luminogenic substrate, releasing aminoluciferin, which is subsequently converted to light by luciferase. The intensity of the signal directly correlates with the levels of apoptosis. […] This destabilization reduces the levels of proteins essential for cancer cell survival, resulting in cumulative cellular stress, diminished proliferation, and enhanced cytotoxicity. […] This enhanced effect is likely due to the catalytic nature of the molecular glue degraders, offering promising potential for cancer treatment.
[…] After treatment, the medium was removed, and cells were gently washed with PBS to remove any residual media. Cells were then fixed by adding 100 μL of 100% cold methanol and incubating for 10 min. The methanol was aspirated, and the cells were allowed to air-dry fully. The cells were stained with 50 μL of 0.1% crystal violet for 10 min, after which excess crystal violet was aspirated and the cells were washed with PBS. To quantify cell viability, 100 μL of 33% acetic acid was added to each well to solubilize the bound dye. […] was then measured at 590 nm using Synergy H1 Hybrid Multi-Mode Microplate Reader (Biotek, Agilent). […]

Bcl2 [2] = assay: Bcl2 protein expression by western blot in MCF-7 cells; assay type: cell-based, human; settings: MCF-7, 10 nM, 24 h
Protocol: (§3) The hook effect was again observed in Bcl2 protein expression, underscoring the functional link between HuR and Bcl2.
(§4) MDA-MB-231 and MCF-7 cells were seeded in 6-well plates at approximately 60% confluency in complete growth medium and treated with synthesized compounds at the indicated concentrations or with vehicle for 24 h. Total protein was extracted using RIPA cell lysis buffer (BioPrep) containing a protease inhibitor, and protein concentration was measured using the BCA protein assay (Sigma-Aldrich) according to the manufacturer’s protocol. Approximately 30 μg of total protein were resolved on a 12% SDS-acrylamide gel and transferred to a PVDF membrane (Immobilon FL transfer membrane; Merck). The membrane was washed with 1× Tris-buffered saline (TBS) containing 0.1% (v/v) Tween-20 (TBST; Tris-base, pH 7.6, NaCl, and Tween-20) and blocked in 1× TBST containing 5% (w/v) BSA for 2 h at room temperature. […] The fold change in the expression of the target proteins (HuR or Bcl2) was calculated by normalizing the band intensity to the Vinculin band intensity using ImageJ.

MCF-7 cells [3] = assay: Caspase-Glo 3/7 apoptosis assay; assay type: cell-based, human; settings: MCF-7, 10 nM
From the text: as §2
MCF-7 cells were seeded in 96-well plates to 80% confluency and treated with synthesized compounds at four concentrations (1 nM–1 μM) for 24 and 48 h. Cell apoptosis was analyzed using the Caspase-Glo 3/7 Assay System (Promega, G8090). Each sample was incubated with Caspase-Glo 3/7 solution for 1 h, followed by luminescence measurement. Luminescence was measured […] using the Synergy H1 Hybrid Multi-Mode Microplate Reader (Biotek, Agilent). Cell apoptosis was calculated as the percent increase in luminescence of treated cells compared to untreated controls. All experiments were performed in triplicate.

MCF-10A = assay: Crystal violet viability assay in MCF-10A cells; assay type: cell-based; settings: 10 nM or 10 μM, 48 h
From the text: as §2
RNF-126 recruiter for 48 h, measured using crystal violet. (B) Viability assay of MCF-10A cells
126 recruiter for 48 h, measured using crystal violet.
(1 picture or pasted object on this page, not shown here)

MDA-MB-231 spheroids = assay: 3D spheroid growth model, MDA-MB-231; assay type: cell-based, human; settings: 10 nM
Protocol: as §1

Bcl2 and FOXQ1 mRNA = assay: mRNA RT-qPCR of Bcl2 and FOXQ1 in MCF-7 cells; assay type: cell-based, human; settings: MCF-7, concentrations ranging from 1 nM to 100 nM
Protocol: MCF-7 cells were seeded into 12-well plates (∼150,000 cells per well) at 60–70% confluency incubated for 12 h. The cells were then treated with different synthesized compounds at the indicated concentrations or with vehicle control for 24 and 48 h. After treatment, total RNA was extracted using the QuickRNA Miniprep Kit (Zymo Research) according to the manufacturer’s protocol, including DNase I treatment. Reverse transcription was performed on 1 μg of total RNA using the qScript cDNA Synthesis Kit (Quantabio) following the manufacturer’s instructions. Approximately 30 ng of cDNA were used for each qPCR reaction, which was carried out using the Luna Universal qPCR Master Mix (New England BioLabs, cat# E3010G) on a CFX Opus 384 Real-Time PCR System. Relative expression levels of Bcl-2 and FOXQ1 were calculated by normalizing to GAPDH expression using the ΔΔCt method.

Bcl2 [4] = assay: Bcl2 protein expression by western blot in MDA-MB-231 cells; assay type: cell-based, human; settings: MDA-MB-231, 10 nM, 24 h
Protocol: as §3, §4

SMILES: CCOC(=O)c1cc2cc(NC(=O)/C=C/C(=O)c3ccc(OC)cc3)ccc2[nH]1 [MG-HuR2]
- spheroid growth (MCF-7 spheroids): inhibited spheroid growth after 2 days
- cytotoxicity / cell viability (crystal violet) (MCF-7 cells [1]): exhibited cytotoxic activity
- reduction of Bcl2 protein expression (Bcl2 [2]): 88%
- apoptosis (caspase 3/7) (MCF-7 cells [3]): significant increase in apoptosis
- cytotoxicity / viability in nontumorigenic cells (MCF-10A): No significant cytotoxicity or change in viability
- spheroid growth (MDA-MB-231 spheroids): inhibited spheroid growth after 2 days
- Bcl2 and FOXQ1 mRNA expression (Bcl2 and FOXQ1 mRNA): decrease in the expression of both genes
- reduction of Bcl2 protein expression (Bcl2 [4]): 45%
